“Also recorded” adds a separate entry of the source.
Experiments:
cynomologus monkey eyes = assay: IOP-lowering effect in cynomologus monkey eyes (lasered, ocular hypertensive); assay type: in vivo
Protocol: Compound II and PGF2α isopropyl ester (PGF2α iPr) were tested for IOP-lowering effect in cynomologus monkey eyes. The right eyes of the cynomologus monkeys in this study were previously given laser trabeculoplasty to induce ocular hypertension in the lasered eye. Animals had been trained to sit in restraint chairs and conditioned to accept experimental procedures without chemical restraint. IOP was determined with a pneumatonometer after light comeal anesthesia with dilute proparacaine. The test protocol included a five-dose b.i.d. treatment regimen because of the typical delayed response to prostaglandins. The test formulations were administered to the lasered right eyes, and the normal left eyes remained untreated for compound 11, or to both eyes for PGF2α isopropyl ester (PGF2α iPr). Baseline IOP values were determined prior to treatment with the test formulation, and IOP was determined 16 hours after the fourth dose for all compounds, 2, 4, and 6 hours after the fifth dose for compound II, and 1, 3 and 7 hours after the fifth dose for PGF2α iPr. Results are presented in Table 2 as the mean percent reduction of IOP from baseline +/- SEM. Prostaglandins were administered in 30 μL of test formulation.

[1] = tested on: New Zealand (NZA) rabbit eye; assay: ocular irritation in the New Zealand (NZA) rabbit (Hackett/McDonald scoring); assay type: in vivo
Protocol: Compound II and PGF2α isopropyl ester (PGF2α iPr) were tested for ocular irritation in the New Zealand (NZA) rabbit. The prostaglandins were administered in 30 μL of test formulation. Conjunctival hyperemia, swelling and discharge were evaluated using a system devised to grossly compare the irritation potential of prostaglandins in the NZA rabbit. Using the Hackett/McDonald scoring system (Hackett, R. B. and McDonald, T. O. "Eye Irritation" in Dermatotoxicology, 4th edition, Marzulli, F. N. and Maibach, H. I. editors, Hemisphere Publishing Corp., Washington D.C. (1991)), conjunctival hyperemia, conjunctival swelling, and ocular discharge were graded using a slit-lamp prior to compound instillation and 1, 2, 3, and 5 hours after topical ocular instillation of the test compound. The percentage of eyes scoring +2 or greater for all time points was calculated for each parameter (conjunctival hyperemia, conjunctival swelling, and ocular discharge). To facilitate comparison, PGF2α iPr was administered at the same time as the test agent.

[2] = tested on: intraocular pressure (IOP); details: cited from earlier work
[3] = 3 μg, topical ocular, 1, 2, 3, 5 hours
[4] = 10.0 μg, topical ocular, 1, 2, 3, 5 hours
[5] = 1.0 μg, topical ocular, administered at the same time as the test agent
[6] = 1.0 μg, topical ocular, second of two values, administered at the same time as the test agent

CC(C)OC(=O)CCC/C=C\C[C@@H]1[C@@H](SC[C@@H](O)COc2cccc(Cl)c2)[C@H](O)C[C@@H]1O [Compound II, (5Z)-(9S, 11R, 15S)-9, 11, 15-trihydroxy-16-m-chlorophenoxy-13-thia-17,18, 19, 20-tetranor-5-prostenoic acid isopropyl ester]
Percent IOP Reduction +/-SEM (cynomologus monkey eyes; 1.0 μg b.i.d., 2 hours after fifth dose (2/5), baseline IOP 31.6 mm Hg): 13.9 +/- 6.8% | Percent IOP Reduction +/-SEM (cynomologus monkey eyes; 1.0 μg b.i.d., 4 hours after fifth dose (4/5), baseline IOP 31.6 mm Hg): 8.1 +/- 6.6% | Percent IOP Reduction +/-SEM (cynomologus monkey eyes; 1.0 μg b.i.d., 6 hours after fifth dose (6/5), baseline IOP 31.6 mm Hg): 10 +/- 6.2% | Percent IOP Reduction +/-SEM (cynomologus monkey eyes; 1.0 μg b.i.d., 16 hours after fourth dose (16/4), baseline IOP 31.6 mm Hg): 4.6 +/- 6.1% | Percent IOP Reduction +/-SEM (cynomologus monkey eyes; 3.0 μg b.i.d., 2 hours after fifth dose (2/5), baseline IOP 32.2 mm Hg): 23.3% | Percent IOP Reduction +/-SEM (cynomologus monkey eyes; 3.0 μg b.i.d., 4 hours after fifth dose (4/5), baseline IOP 32.2 mm Hg): 24.2 +/- 3.6% | Percent IOP Reduction +/-SEM (cynomologus monkey eyes; 3.0 μg b.i.d., 6 hours after fifth dose (6/5), baseline IOP 32.2 mm Hg): 24.9 +/- 3.4% | Percent IOP Reduction +/-SEM (cynomologus monkey eyes; 3.0 μg b.i.d., 16 hours after fourth dose (16/4), baseline IOP 32.2 mm Hg): 18.0 +/- 3.0% | IOP reduction (in words) (cynomologus monkey eyes; for the time period tested, Table 2): significant degree of IOP reduction | % Incidence, Conjunctival Hyperemia (eyes scoring +2 or greater for all time points) [1, 3]: 0% | % Incidence, Conjunctival Swelling (eyes scoring +2 or greater for all time points) [1, 3]: 30% | % Incidence, Discharge (eyes scoring +2 or greater for all time points) [1, 3]: 0% | % Incidence, Conjunctival Hyperemia (eyes scoring +2 or greater for all time points) [1, 4]: 23% | % Incidence, Conjunctival Swelling (eyes scoring +2 or greater for all time points) [1, 4]: 33% | % Incidence, Discharge (eyes scoring +2 or greater for all time points) [1, 4]: 5% | ocular irritation / ocular side effects (in words) ([1]; Table 1): attenuates the ocular side effects; also recorded: low incidence of side effects | ocular irritation / ocular side effects (in words) ([1]; Table 1, listed as 11): low incidence of ocular irritation

CCCCC[C@H](O)/C=C/[C@@H]1[C@@H](C/C=C\CCCC(=O)OC(C)C)[C@@H](O)C[C@H]1O [PGF2α iPr, PGF2α isopropyl ester, reference compound]
Percent IOP Reduction +/-SEM (cynomologus monkey eyes; 1.0 μg b.i.d., both eyes, 1 hour after fifth dose (1/5), baseline IOP 34.8 mm Hg): 27.6% | Percent IOP Reduction +/-SEM (cynomologus monkey eyes; 1.0 μg b.i.d., both eyes, 3 hours after fifth dose (3/5), baseline IOP 34.8 mm Hg): 38 +/- 1.7% | Percent IOP Reduction +/-SEM (cynomologus monkey eyes; 1.0 μg b.i.d., both eyes, 7 hours after fifth dose (7/5), baseline IOP 34.8 mm Hg): 25.6 +/- 14.4% | Percent IOP Reduction +/-SEM (cynomologus monkey eyes; 1.0 μg b.i.d., both eyes, 16 hours after fourth dose (16/4), baseline IOP 34.8 mm Hg): 5.8 +/- 4.0% | % Incidence, Conjunctival Hyperemia (eyes scoring +2 or greater for all time points) [1, 5]: 58% | % Incidence, Conjunctival Swelling (eyes scoring +2 or greater for all time points) [1, 5]: 67% | % Incidence, Discharge (eyes scoring +2 or greater for all time points) [1, 5]: 47% | % Incidence, Conjunctival Hyperemia (eyes scoring +2 or greater for all time points) [1, 6]: 58% | % Incidence, Conjunctival Swelling (eyes scoring +2 or greater for all time points) [1, 6]: 63% | % Incidence, Discharge (eyes scoring +2 or greater for all time points) [1, 6]: 48% | ocular irritation / ocular side effects (in words) ([1]; Table 1): relatively high incidence of hyperemia, conjunctival swelling and discharge

CCCCC[C@H](O)/C=C/[C@@H]1[C@@H](C/C=C\CCCC(=O)O)[C@@H](O)C[C@H]1O [PGF2α]
IOP lowering (in words) ([2]; after topical ocular instillation, background): known to lower intraocular pressure (IOP) | side effects (in words) ([2]; in vivo): can cause conjunctival hyperemia and/or edema as well as inflammation
